# Experimental data: patent US20130095493A1, “IDENTIFICATION OF THE GENE NOTCH3 AS A NOVEL BIOMARKER FOR HUMAN METASTATIC MELANOMA” (THE JOHNS HOPKINS UNIVERSITY, priority 2011, published 2013)
# “Also recorded” adds a separate entry of the source.
# What was measured:
# Assay type in all cases: cell-based, human
# [1] = tested on: Notch signaling (4XCBF-1 Notch luciferase reporter in GFP-1205Lu co-cultured with RFP-HUVEC); assay: Notch luciferase reporter co-culture (dual-luciferase assay)
# Protocol: GFP-1205Lu was transfected using Lipofectamine 2000 with 4XCBF-1 Notch luciferase reporter (kindly provided by Dr. Diane Hayward, Johns Hopkins University) and Renilla control plasmid (2 μg total cDNA/well). Cells were transfected for 4 hr, then harvested by trypsinization and co-cultured with RFP-HUVEC at varying ratios for 24 hr in EGM-2. Cells were washed with PBS, snap-frozen, and stored at −80° C. Co-cultures were lysed using the Dual-Luciferase Reporter Assay System (Promega) and analyzed on a 1450 Microbeta plate reader (Perkin Elmer). The specificity of Notch signaling was verified using the pan-Notch inhibitor DAPT and 0.1% DMSO as a vehicle control.
# The transcriptional activity of Notch is mediated by the CBF-1 promoter sequence upstream of target genes. CBF-1 recruits CSL transcriptional repressors which inactivate gene expression in the absence of NICD. […] Thus, by utilizing a four-tandem repeat of CBF-1 to drive luciferase expression during a transient transfection, canonical Notch signaling can be directly quantified by chemiluminescence activity in a target cell population. […]
# To quantify Notch signaling within the model system, GFP-1205Lu was transiently transfected with 4XCBF-1 Notch luciferase reporter (PJH23A) and co-cultured with RFP-HUVEC for 24 hours. […]
# [2] = tested on: RFP-HUVEC networking phenotype in GFP-1205Lu:RFP-HUVEC co-culture; assay: Melanoma-endothelial co-culture networking phenotype; conditions: 10 μM DAPT vs 0.1% DMSO; 1:1 GFP-1205Lu:RFP-HUVEC co-culture
# Protocol: For co-culture experiments, various GFP-labeled melanoma cell lines were co-cultured with RFP-HUVEC at a 1:1 ratio to 95% confluency in EGM-2. Melanoma cells grown alone were cultured in EGM-2 to control for medium effects. Cells were co-cultured for 48 hours before sorting by FACS into pure populations. The sorted cell populations were divided and stored at −80° C. for mRNA and protein analysis.
# (§1) In previous investigations, we observed RFP-HUVEC communicating in a concerted fashion with metastatic melanoma cells to create a networking phenotype during 48 hrs of co-culture. It was thought that understanding the molecular determinants of this communication could lead to pharmacological targets for the prevention of melanoma-endothelial crosstalk in the clinical setting. To determine whether Notch signaling is involved in mediating the networking phenotype, GFP-1205Lu and RFP-HUVEC were co-cultured in 0.1% DMSO (vehicle) or 10 μM DAPT. These cells were also cultured alone in identical media to determine whether these conditions elicited any aberrant growth not attributable to co-culture.
# [3] = tested on: GFP-1205Lu or RFP-HUVEC grown alone; assay: Growth of cells cultured alone under DAPT; conditions: 10 μM DAPT vs 0.1% DMSO
# From the text: as §1
smiles,measurement,setting,value
C[C@H](NC(=O)Cc1cc(F)cc(F)c1)C(=O)N[C@H](C(=O)OC(C)(C)C)c1ccccc1 [DAPT],Inhibition of quantified Notch signaling,[1]; 10 μM DAPT vs 0.1% DMSO vehicle,effectively inhibiting all quantified Notch signaling
same,Effect on co-culture stimulated Notch signaling (luciferase reporter),"[1]; GFP-1205Lu with 4XCBF-1 reporter, RFP-HUVEC co-culture 24 hours, DMSO vehicle had no effect",completely abrogated the co-culture stimulated Notch signaling; also recorded: completely abrogated all Notch signaling observed
same,Effect on RFP-HUVEC networking phenotype in co-culture,[2],drastically affected; also recorded: RFP-HUVEC network disruption
same,Effect on growth of GFP-1205Lu or RFP-HUVEC grown alone,[3],little effect; also recorded: no discernable difference
